Drawing on US8841483B2, “Compositions useful as inhibitors of voltage-gated sodium channels” (Vertex Pharmaceuticals Incorporated, priority 2006, dated 2014), this text covers IC50 for 56 molecules.

Molecules are shown by their SMILES. Some results are limits rather than exact numbers.

This experiment deals with NaV1.8 (Homo sapiens, UniProt Q9Y5Y9). The experiment is described as follows: Activity against NaV 1.8 channel (Table 3), optical membrane potential / electrophysiology assays. The format is cell-based. The protocol: Compounds of the invention are useful as antagonists of voltage-gated sodium ion channels. Antagonist properties of test compounds were assessed as follows. Cells expressing the NaV of interest were placed into microtiter plates. After an incubation period, the cells were stained with fluorescent dyes sensitive to the transmembrane potential. The test compounds were added to the microtiter plate. The cells were stimulated with either a chemical or electrical means ti evoke a NaV dependent membrane potential change from unblocked channels, which was detected and measured with trans-membrane potential-sensitive dyes. Antagonists were detected as a decreased membrane potential response to the stimulus. The optical membrane potential assay utilized voltage-sensitive FRET sensors described by Gonzalez and Tsien (See, Gonzalez, J. E. and R. Y. Tsien (1995) “Voltage sensing by fluorescence resonance energy transfer in single cells” Biophys J 69(4): 1272-80, and Gonzalez, J. E. and R. Y. Tsien (1997) “Improved indicators of cell membrane potential that use fluorescence resonance energy transfer” Chem Biol 4(4): 269-77) in combination with instrumentation for measuring fluorescence changes such as the Voltage/Ion Probe Reader (VIPR®) (See, Gonzalez, J. E., K. Oades, et al. (1999) “Cell-based assays and instrumentation for screening ion-channel targets” Drug Discov Today 4(9): 431-439).
The following is an example of how NaV1.3 inhibition activity is measured using the optical membrane potential method #2. Other subtypes are performed in an analogous mode in a cell line expressing the NaV of interest.
HEK293 cells stably expressing NaV1.3 are plated into 96-well microtiter plates. After an appropriate incubation period, the cells are stained with the voltage sensitive dyes CC2-DMPE/DiSBAC2(3) as follows.
2X CC2-DMPE=20 μM CC2-DMPE: 10 mM CC2-DMPE is vortexed with an equivalent volume of 10% pluronic, followed by vortexing in required amount of HBSS containing 10 mM HEPES. Each cell plate will require 5 mL of 2X CC2-DMPE. 50 μL of 2X CC2-DMPE is to wells containing washed cells, resulting in a 10 μM final staining concentration. The cells are stained for 30 minutes in the dark at RT.
2X DISBAC2(3) with ABSC1=6 μM DISBAC2(3) and 1 mM ABSC1: The required amount of 10 mM DISBAC2(3) is added to a 50 ml conical tube and mixed with 1 μL 10% pluronic for each mL of solution to be made and vortexed together. Then HBSS/HEPES is added to make up 2X solution. Finally, the ABSC1 is added.
The 2X DiSBAC2(3) solution can be used to solvate compound plates. Note that compound plates are made at 2X drug concentration. Wash stained plate again, leaving residual volume of 50 μL. Add 50 uL/well of the 2X DiSBAC2(3) w/ABSC1. Stain for 30 minutes in the dark at RT.
The electrical stimulation instrument and methods of use are described in ION Channel Assay Methods PCT/US01/21652, herein incorporated by reference. The instrument comprises a microtiter plate handler, an optical system for exciting the coumarin dye while simultaneously recording the coumarin and oxonol emissions, a waveform generator, a current- or voltage-controlled amplifier, and a device for inserting electrodes in well. Under integrated computer control, this instrument passes user-programmed electrical stimulus protocols to cells within the wells of the microtiter plate.
Assay Protocol • 1. Insert or use electrodes into each well to be assayed. • 2. Use the current-controlled amplifier to deliver stimulation wave pulses for 3 s. Two seconds of pre-stimulus recording are performed to obtain the un-stimulated intensities. Five seconds of post-stimulation recording are performed to examine the relaxation to the resting state.
Data are analyzed and reported as normalized ratios of background-subtracted emission intensities measured in the 460 nm and 580 nm channels. Background intensities are then subtracted from each assay channel. […]
A word on the IC50: it is the concentration at which inhibition is half-maximal. Take `CC(=O)c1ccccc1Oc1cc(C(C)(C)C)ccc1C(=O)Nc1cccc(S(N)(=O)=O)c1` [Compound 102]: the half-inhibitory concentration (IC50) lay in the range of 2 to 10 µM. In the case of `N#Cc1ccc(C(=O)Nc2cccc(S(N)(=O)=O)c2)cc1` [Compound 52], the IC50 was > 10 µM.

In the case of `Cc1cc(Cl)ccc1C(=O)Nc1cccc(S(N)(=O)=O)c1` [Compound 29], the IC50 was > 10 µM. Take `NS(=O)(=O)c1cccc(NC(=O)c2ccccc2COc2ccccc2)c1` [Compound 12]: the half-inhibitory concentration (IC50) lay in the range of 2 to 10 µM.

Regarding `NS(=O)(=O)c1cccc(NC(=O)c2ccccc2-c2cccnc2)c1` [Compound 11], the half-maximal inhibitory concentration (IC50) was > 10 µM. On to `CS(=O)(=O)c1ccc(C(=O)Nc2cccc(S(N)(=O)=O)c2)cc1` [Compound 56], for which the concentration for half-maximal inhibition (IC50) was > 10 µM. Regarding `CC(C)Cc1ccc(C(=O)Nc2cccc(S(N)(=O)=O)c2)cc1` [Compound 80], the 50% inhibitory concentration (IC50) was < 2 µM.

With `COc1ccc(C(=O)Nc2cccc(S(N)(=O)=O)c2)cc1C(F)(F)F` [Compound 42], the IC50 is > 10 µM. Take `NS(=O)(=O)c1cccc(NC(=O)c2ccc(Cl)c(Cl)c2)c1` [Compound 3]: the IC50 was > 10 µM.

In the case of `CCOc1ccc(C(=O)Nc2cccc(S(N)(=O)=O)c2)c(OCC)c1` [Compound 117], the half-maximal inhibitory concentration (IC50) was > 10 µM.

Take `NS(=O)(=O)c1cccc(NC(=O)c2ccc(C(F)(F)F)cc2)c1` [Compound 8]: the IC50 was > 10 µM. `NS(=O)(=O)c1cccc(NC(=O)c2ccccc2N2CCOCC2)c1` [Compound 92]: the IC50 is > 10 µM. For the molecule `COc1ccccc1C(=O)Nc1cccc(S(N)(=O)=O)c1` [Compound 85], the half-maximal inhibitory concentration (IC50) was > 10 µM. Turning to `COC(=O)c1ccc(Oc2cc(C(C)(C)C)ccc2C(=O)Nc2cccc(S(N)(=O)=O)c2)cc1` [Compound 125], the IC50 is < 2 µM. In the case of `CC(=O)Nc1ccc(C(=O)Nc2cccc(S(N)(=O)=O)c2)cc1` [Compound 54] it was > 10 µM. On to `NS(=O)(=O)c1cccc(NC(=O)c2ccc(-c3ncns3)cc2)c1` [Compound 49], for which the IC50 is > 10 µM. For `CC(C)(C)c1ccc(C(=O)Nc2cccc(S(N)(=O)=O)c2)cc1` [Compound 67], the IC50 was < 2 µM. Consider `CC(C)(C)c1ccc(C(=O)Nc2cccc(S(N)(=O)=O)c2)c(Oc2ccccc2)c1` [Compound 1], for which the IC50 is < 2 µM. For the molecule `CCOc1cc(C(C)(C)C)ccc1C(=O)Nc1cccc(S(N)(=O)=O)c1` [Compound 103], the half-inhibitory concentration (IC50) was < 2 µM.

On to `Cc1ccccc1C(=O)Nc1cccc(S(N)(=O)=O)c1` [Compound 69], for which the IC50 is > 10 µM. Turning to `CC(C)(C)c1ccc(C(=O)Nc2ccc(Cl)c(S(N)(=O)=O)c2)cc1` [Compound 79], the IC50 is < 2 µM. In the case of `COc1ccc(C(=O)Nc2cccc(S(N)(=O)=O)c2)c(C)c1` [Compound 141], the IC50 is > 10 µM.

Regarding `Cc1cc(Br)ccc1C(=O)Nc1cccc(S(N)(=O)=O)c1` [Compound 2], the IC50 is > 10 µM. Consider `COc1cc(Cl)ccc1C(=O)Nc1cccc(S(N)(=O)=O)c1` [Compound 140], for which the concentration for half-maximal inhibition (IC50) is > 10 µM. On to `CC(C)(C)c1ccc(C(=O)Nc2cccc(S(N)(=O)=O)c2)c(Sc2ccccc2)c1` [Compound 105], for which the IC50 is < 2 µM. With `NS(=O)(=O)c1cccc(NC(=O)c2ccc(OC(F)(F)F)cc2)c1` [Compound 34, N-(3-(Aminosulfonyl)phenyl)-4-(trifluoromethoxy)benzamide], the IC50 was > 10 µM.

Take `COc1ccc(C(=O)Nc2cccc(S(N)(=O)=O)c2)cc1OC` [Compound 9]: the 50% inhibitory concentration (IC50) was > 10 µM.

Regarding `NS(=O)(=O)c1cccc(NC(=O)c2ccc3c(c2)OCO3)c1` [Compound 32], the IC50 was > 10 µM. With `CN(C(=O)c1ccc(C(C)(C)C)cc1)c1cccc(S(N)(=O)=O)c1` [Compound 90, 4-tert-Butyl-N-methyl-N-(3-(aminosulfonyl)phenyl)benzamide], the IC50 is > 10 µM. The same measure for `CCc1ccc(C(=O)Nc2cccc(S(N)(=O)=O)c2)cc1` [Compound 28]: > 10 µM; for `Cc1ncccc1Oc1cc(C(C)(C)C)ccc1C(=O)Nc1cccc(S(N)(=O)=O)c1` [Compound 114]: < 2 µM; for `CC(C)(C)c1ccc(C(=O)Nc2cccc(S(N)(=O)=O)c2)c(Oc2ccc(C(F)(F)F)cc2Cl)c1` [Compound 116]: 2 to 10 µM. As to `CC(C)(C)c1ccc(C(=O)Nc2cccc(S(N)(=O)=O)c2)c(Oc2cccc(N3CCOCC3)c2)c1` [Compound 136], the IC50 was > 10 µM. The same measure for `Cc1c(Cl)cc(NC(=O)c2ccc(C(C)(C)C)cc2)cc1S(N)(=O)=O` [Compound 24]: > 10 µM; for `CN(C)S(=O)(=O)c1cccc(NC(=O)c2ccc(C(C)(C)C)cc2Oc2ccc(F)cc2Cl)c1` [Compound 121]: < 2 µM; for `CC(=O)c1ccc(Oc2cc(C(C)(C)C)ccc2C(=O)Nc2cccc(S(N)(=O)=O)c2)cc1` [Compound 128]: < 2 µM. For the molecule `NS(=O)(=O)c1cccc(NC(=O)c2ccccc2C2CCCCC2)c1` [Compound 83, 2-Cyclohexyl-N-(3-(aminosulfonyl)phenyl)benzamide], the concentration for half-maximal inhibition (IC50) is < 2 µM. In the case of `Cc1ncccc1Oc1cc(C(F)(F)F)ccc1C(=O)Nc1cccc(S(N)(=O)=O)c1` [Compound 138, 2-(2-methylpyridin-3-yloxy)-N-(3-sulfamoylphenyl)-4-(trifluoromethyl)benzamide], the half-maximal inhibitory concentration (IC50) is < 2 µM. For the molecule `NS(=O)(=O)c1cccc(NC(=O)c2ccccc2CCc2ccccc2)c1` [Compound 71], the IC50 lay within 2 to 10 µM. As to `CCc1ccccc1C(=O)Nc1cccc(S(N)(=O)=O)c1` [Compound 137], the IC50 is > 10 µM. In the case of `CC(=O)c1ccccc1C(=O)Nc1cccc(S(N)(=O)=O)c1` [Compound 122] it was > 10 µM. `NS(=O)(=O)c1cccc(NC(=O)c2ccccc2Oc2ccc(C(F)(F)F)cc2)c1` [Compound 16]: the concentration for half-maximal inhibition (IC50) was < 2 µM. The same measure for `CC(=O)c1cccc(Nc2ccccc2C(=O)Nc2cccc(S(N)(=O)=O)c2)c1` [Compound 36]: > 10 µM; for `NS(=O)(=O)c1cccc(NC(=O)c2ccccc2Nc2cccc(-c3nnn[nH]3)c2)c1` [Compound 82]: > 10 µM; for `NS(=O)(=O)c1cccc(NC(=O)c2ccccc2Oc2ccccc2N2CCCCC2)c1` [Compound 53, 2-(2-(Piperidin-1-yl)phenoxy)-N-(3-(aminosulfonyl)phenyl)benzamide]: < 2 µM. Consider `NS(=O)(=O)c1cccc(NC(=O)c2ccc(-c3ccccc3)cc2)c1` [Compound 58], for which the 50% inhibitory concentration (IC50) is > 10 µM. On to `CC(C)c1ccc(C(=O)Nc2cccc(S(N)(=O)=O)c2)cc1` [Compound 10], for which the half-maximal inhibitory concentration (IC50) fell in the range of 2 to 10 µM. The same measure for `CC(C)(C)c1ccc(C(=O)Nc2cccc(S(N)(=O)=O)c2)c(Oc2ccccc2C#N)c1` [Compound 111]: 2 to 10 µM; for `Cc1ccc(Oc2cc(C(C)(C)C)ccc2C(=O)Nc2cccc(S(N)(=O)=O)c2)c(C)n1` [Compound 99]: < 2 µM. As to `COc1ccc(Oc2ccccc2C(=O)Nc2cccc(S(N)(=O)=O)c2)cc1` [Compound 50], the half-inhibitory concentration (IC50) lay within 2 to 10 µM. As to `CC(C)(C)NS(=O)(=O)c1cccc(NC(=O)c2ccc(C(C)(C)C)cc2Br)c1` [Compound 126], the IC50 is 2 to 10 µM. For `CC(C)(C)c1ccc(C(=O)Nc2cccc(S(N)(=O)=O)c2)c(Oc2cccnc2)c1` [Compound 61], the IC50 was < 2 µM.

For the molecule `Cc1ccc(C(=O)Nc2cccc(S(N)(=O)=O)c2)c(Br)c1` [Compound 142], the half-maximal inhibitory concentration (IC50) was > 10 µM. With `NS(=O)(=O)c1cccc(NC(=O)c2cccc(C(F)(F)F)c2)c1` [Compound 35], the half-maximal inhibitory concentration (IC50) is > 10 µM. In the case of `NS(=O)(=O)c1cccc(NC(=O)c2cccc(Br)c2)c1` [Compound 40], the IC50 is > 10 µM. Take `NS(=O)(=O)c1cccc(NC(=O)c2ccccc2C(F)(F)F)c1` [Compound 47]: the IC50 was > 10 µM.
